Reference: patent US8952048B2, “Treatment of immune disorders using kainate receptor antagonists” (Virginia Commonwealth University, priority 2010, dated 2015)
“Also recorded” adds a separate entry of the source.

What was measured:
primary human B cells [1] = test: Immunoglobulin production by primary human B cells (ELISA, 14 days); type: cell-based; conditions: for amount of IgE produced / effect on glutamate enhancement of IgG production: 14 days; for effect on glutamate enhancement of IgG production / effect on glutamate mediated increase in IgE production: 10 μM antagonist before culture; for effect on glutamate enhancement of IgG production: 5 mM glutamate
Procedure: (§1) Primary B cells or PBMC were cultured in the presence of 10 ng/mL IL-4 and 1 μg/mL anti-CD40 in complete culture media in the presence or absence of 5 mM KA or 5 mM Glu. When indicated, 200 ng/mL IL-21 was also added. For antagonism studies, prior to culture primary cells were treated with 10 μM vehicle (DMSO), NBQX, NS102, or TPM. After 14 days of culture, cell free supernatants were analyzed via ELISA for Ig levels. As cells are grown at various densities, line graphs represent Ig production as compared to cell density.
(§2) To determine the effect of ADAM10 inhibition on Ig production, purified human B cells were cultured with 10 ng/mL IL-4, 1 μg/mL anti-CD40, and 200 ng/mL IL-21 in complete culture media in the presence of DMSO as vehicle control or 10 μM ADAM10 specific inhibitor. Five days later, cell free supernatants were harvested for soluble CD23 release and fourteen days later, cell free supernatants were analyzed for Ig production. ELISAs. Human sCD23 ELISA was measured using a standard sandwich ELISA approach, using a mouse anti-CD23 (Clone BU38) coating antibody and sheep anti-CD23 (both from The Binding Site Birmingham, UK). Detection is performed with a goat anti-sheep IgG tagged with HRP (Southern Biotech Birmingham, Ala.). Determination of human IgE levels utilized a monoclonal mouse anti-human IgE antibody (clone 4.15) as a capture. Samples and standards were detected using a rabbit anti-human IgE-HRP (Southern Biotech) diluted in PBS/10% FBS. Human IgG or IgM were detected using a goat anti-human IgG or IgM followed by detection with a goat anti-human IgG or IgM tagged with HRP (All from Southern Biotech). Standards for the IgG and IgM ELISAs were purchased from Sigma. IgE standards were purified from JW8 hybridoma cells as previously described (Caven et al., 2005a). All assays utilized TMB substrate (BD Pharmingen San Diego, Calif.) and the reactions were stopped with 0.18M H2SO4. Plates are read at a wavelength of 450 nm on a SpectraMax 250 and data analyzed using SOFTmax PRO 3.1.2 software (Molecular Devices, Los Angeles, Calif.).

primary B cells = test: ADAM10 mRNA by qPCR in primary B cells; type: cell-based, human; conditions: 5 mM KA or glutamate, 30 minutes; normalized to beta-actin
Procedure: Alternatively when whole PBMC was used, buffy coats were obtained from the Virginia Blood Service Center (Richmond, Va.). PBMC were isolated by Ficoll gradient density centrifugation. All human studies research was performed in accordance to the Virginia Commonwealth University Institution Review Board per approved protocols. RT-PCR and qPCR. RNA was isolated via standard Trizol (Invitrogen) purification protocol and the Access Quick RT-PCR kit (Promega, Madison Wis.) was used with gene specific primers to examine for the presence of kainate receptor subunits and their transcript variants. Primers were designed using VectorNTI software (Invitrogen). Ready-made Primers® for G3PDH and all custom made primers for all sequences were synthesized by Integrated DNA Technologies (Coralville, Iowa). qPCR experiments were performed by the nucleic acid core in the ABI Prism® 7900 Sequence Detection System (Applied Biosystems, Foster City, Calif.) using the TaqMan® One Step PCR Master Mix Reagents Kit. All the samples were tested in triplicate using the following conditions: 48° C./30 min; 95° C./10 min; and 40 cycles of 95° C./15 sec and 60° C./1 min. The cycle threshold was determined to provide the optimal standard curve values (0.98 to 1.0). The probes and primers for ADAM10 (#Hs00153853_ml) were purchased from ABI. […] Relative ADAM10 mRNA is determined as a relative ratio based upon beta-actin.

RPMI8866 cells = test: Soluble CD23 release assay in RPMI8866 cells; type: cell-based, human; conditions: for effect on increase in sCD23 release caused by KAR stimulation: 50 μM antagonist 1 hr prior to 5 mM KA or Glu; for effect on baseline sCD23 release: 50 μM antagonist, no KA or Glu
Procedure: For these studies, the CD23+ human B cell line RPMI8866 was grown in the presence or absence of 5 mM KA or Glu for 24 hours in CDMEM10 at a concentration of 1×10^6 cells/mL. For antagonist studies, prior to the addition of KA or Glu cells were pre-treated with 50 μM vehicle (DMSO), NBQX, NS 102, or TPM for one hour. After incubation, cell free supernatants were harvested and sCD23 levels determined by ELISA. […] Forty-eight hours later cell free supernatants were harvested for ELISA.
as §2

Human PBMC [2] = test: Immunoglobulin production in PBMC cultures (ELISA, 14 days); type: cell-based
Procedure: as §1, §2

GluK2 containing KARs = conditions: Verdoorn et al., 1994; cited from earlier work
[3] = system: B cells from SLE patients; test: SLE vs. normal donor B cell activity in the presence of antagonist; type: cell-based, human; conditions: Example 3, written in present tense
Excerpt: Peripheral blood from both SLE patients and normal donors is obtained. Presence of KARS: Specific KAR primers and Western protocols are used to analyze mRNA and protein expression, respectively, in cultured B cells from SLE patients. Flow cytometry is used to confirm cell surface expression. Comparison of the expression of KARs on B cells from normal vs. SLE patients, the presence of KARs on SLE patient B cells is confirmed.
B cells isolated from both donor populations are stimulated with anti-CD40 in the presence or absence of KAR activation to induce cellular proliferation. Differences among both groups both with and without KAR stimulation are determined. Proliferation is measured via H^3 thymidine incorporation as well as cell cycle divisions via CFSE dilution analysis.
B cells isolated from both populations are put in culture in the presence of IL-4 and anti-CD40, the two signals required for Ig production, in the presence or absence of KAR activation. After 14 days of culture, cell free supernatants are analyzed for total IgM, IgG, and IgE via ELISA. Furthermore, specificity of human antibodies is determined by employing commercially available human anti-nuclear antibody (ANA), anti-snRNP/Smith, and anti-dsDNA ELISA kits.
SLE vs. normal donor B cell activity is compared in the presence of at least one antagonist such as NS 102.

primary human B cells [4] = test: [3H]-thymidine proliferation assay, primary B cells; type: cell-based
Procedure: (§3) When PBMC is used the cell concentration is 100,000 cells/well. […] After 96 hours of growth, a 24 hr pulse [H^3]-thymidine (Perkin Elmer) was used. Plates were then harvested using a Filtermate cell harvester onto GFC plates. Assays were read using a Topcount Plate Counter (Perkin Elmer, Waltham, Mass.).

Human PBMC [5] = test: Proliferation assay, PBMC; type: cell-based; conditions: addition of glutamate
Procedure: as §3

B cells from KAR KO mice = test: In vitro culture of B cells from KAR KO mice with glutamate; type: cell-based, mouse; conditions: in the presence of glutamate; data not shown
[6] = IL-4, anti-CD40, IL-21, 5 mM glutamate, CDMEM-10, 14 days
[7] = 10 μM pretreatment 1 hour before glutamate
[8] = anti-CD40, IL-4, IL-21, glutamate

## C=C(C)[C@H]1CN[C@H](C(=O)O)[C@H]1CC(=O)O [KA, kainic acid]
Primary human B cells [1]; IL-4 and anti-CD40, CRPMI-10, 5 mM KA or Glu
  amount of IgE produced: strong and statistically significant increase
Primary B cells
  ADAM10 mRNA levels: significant increase
RPMI8866 cells; 5 mM KA or Glu, 24 hours, CDMEM10
  amount of sCD23 released following KAR activation: significant elevation

## NS(=O)(=O)c1cccc2c1c([N+](=O)[O-])cc1nc(O)c(O)nc12 [NBQX]
Primary human B cells [1]
  effect on glutamate enhancement of IgG production: unaffected
Primary human B cells [1]; [6]
  effect on glutamate mediated increase in IgE production: no effect
RPMI8866 cells; 24 hours
  effect on increase in sCD23 release caused by KAR stimulation: no change is observed
RPMI8866 cells
  effect on baseline sCD23 release: none of the antagonists have any effect

## O=C1Nc2c(cc([N+](=O)[O-])c3c2CCCC3)C1=NO [NS102, 5-Nitro-6,7,8,9-tetrahydro-1H-benzo[g]indole-2,3-dione 3-oxime]
Human PBMC [2]; [7]
  effect on glutamate increase in IgE production: strongly blocked
  effect on glutamate increase in IgG production: strongly blocked
Primary human B cells [1]
  effect on glutamate enhancement of IgG production: blocked
Primary human B cells [1]; [6]
  effect on glutamate mediated increase in IgE production: almost completely blocks
Primary human B cells [1]; IL-4, anti-CD40, IL-21, 5 mM glutamate, CDMEM-10, 14 days, listed as NS-102
  effect on glutamate mediated increase in IgE production: dramatically reduced
GluK2 containing KARs
  selectivity of KAR antagonism: selectively antagonizes
[3]
  B cell hyperactivity in SLE patients: overcomes the B cell hyperactivity
RPMI8866 cells; 24 hours
  effect on increase in sCD23 release caused by KAR stimulation: could prevent the significant increase
RPMI8866 cells
  effect on baseline sCD23 release: none of the antagonists have any effect
Primary human B cells [4]; 10 μM pretreatment 1 hour before 5 mM glutamate
  effect on glutamate-induced increase in proliferation: prevented

## CC1(C)O[C@@H]2[C@@H](CO[C@@]3(COS(N)(=O)=O)OC(C)(C)O[C@@H]23)O1 [TPM, topiramate]
Primary human B cells [1]; [6]
  effect on glutamate mediated increase in IgE production: did not influence IgE production
RPMI8866 cells; 24 hours
  effect on increase in sCD23 release caused by KAR stimulation: no change is observed
RPMI8866 cells
  effect on baseline sCD23 release: none of the antagonists have any effect

## N[C@@H](CCC(=O)O)C(=O)O [glutamate, L-glutamic acid]
Human PBMC [2]; [8]
  IgE synthesis: very strong enhancement
  IgM production: not significantly influenced
  total IgG production: IgG enhancement was seen
Human PBMC [5]
  proliferation: also affected
Primary human B cells [1]; [6]
  total IgG production: Enhancement in IgG production was seen in all but the highest density cultures
  total IgM levels: not influenced
Primary human B cells [1]; IL-4, anti-CD40 plus IL-21, 5 mM glutamate
  amount of IgE produced: much more IgE; also recorded: pronounced increase
Primary B cells
  ADAM10 mRNA levels: significant increase
B cells from KAR KO mice
  Ig synthesis: did not show any enhanced
  proliferation: did not show any enhanced
  sCD23 release: did not show any enhanced
Primary human B cells [4]; 5 mM glutamate, IL-4, anti-CD40, IL-21, 96 hours plus 24 hr pulse
  cell proliferation: significant increase in proliferation
